Results reported in patent publication US20250041239A1, “ORALLY DISSOLVING ANTIMICROBIAL FILM COMPOSITIONS & METHODS OF THEIR USE” (ISHA Therapeutics LLC, priority 2022, published 2025).
Converted amounts (≈) assume the structure as drawn.

Tests used:
Candida albicans = experiment: Agar cup diffusion, zone of inhibition; type: cell-based
Excerpt: (§1) This Example provides a description of the antifungal activity of the active pharmaceutical ingredient amphotericin B in the orally dissolvable films disclosed herein compared to that of unmodified amphotericin B. Test organisms utilized in this experiment were Candida albicans and Candida tropicalis. Orally dissolvable amphotericin B-containing film(s) utilized in this Example were made according to the process described in Example 3.
(§2) Two different species of infectious fungal genus Candida were cultured. A first mixture of sabouraud dextrose agar and broth was inoculated with Candida albicans and allowed to sit at room temperature for a period of two days under aerobic conditions. A second mixture of sabouraud dextrose agar and broth was inoculated with Candida tropicalis and allowed to sit at room temperature for 2 days under aerobic conditions. This established two cultures (one each) of the test organisms.
(§3) To standardize the respective cultures, the optical density of each culture was adjusted using a 0.5 McFarland (turbidity) standard, approximating cultures to be approximately […] colony forming units per milliliter (cfu/mL).
(§4) Each respective suspension was mixed until homogeneous to provide a final culture density of about 1×10^4 cfu/mL.
(§5) Agar cup diffusion was used for testing antifungal activity of the test compositions. 0.1 mL of each respective sample of amphotericin B or amphotericin B-containing film was provided in a cylinder. Film concentration was 1.8 mg amphotericin B per film. Each test plate contained two samples (two cylinders). Tests were performed in triplicate (3 plates per test composition). Plates were incubated at room temperature for a period of 2 days as amphotericin B test compositions were allowed to diffuse into the agar layer containing test organism(s).
(§6) Amphotericin B and amphotericin B-containing films were then evaluated for in vitro antifungal activity by measuring the zone of inhibition and microbial inhibition concentration (MIC) of each sample. Results are shown in FIGS. 2A, 2B, and 2C for the test organism Candida albicans and FIGS. 3A, 3B, and 3C for the test organism Candida tropicalis. Therein, amphotericin B samples are indicated as “A” and amphotericin B-containing films are indicated as “B”.

Candida tropicalis = experiment: Agar cup diffusion, zone of inhibition; type: cell-based
Excerpt: as §1, §2, §3, §4, §5, §6

[1] = physiological pH; cited from earlier work
Candida spp. = experiment: Resazurin microtiter assay (REMA), MIC, Candida spp. tested; type: cell-based; settings: Candida albicans and Candida tropicalis; read-out: average MIC against Candida spp. tested
Protocol: This Example provides a description of antifungal efficacy testing wherein minimum inhibitor concentration (MIC) of the active pharmaceutical ingredient amphotericin B in the orally dissolvable films disclosed herein compared to that of unmodified amphotericin B. The test organisms utilized in this experiment were Candida tropicalis and Candida albicans.
A resazurin microtiter assay (REMA) assay was performed using orally dissolvable films prepared according to the process described in Example 3 and unmodified amphotericin B. Samples were run in triplicate as Sets 1-3 for each test material against each pathogen.

[2] = 0.1 mL sample, room temperature, 2 days

MIC (Candida spp.): ~1.1 µg/mL (≈ 1.19 µM)
SMILES: C[C@@H]1[C@H](O)[C@@H](C)/C=C/C=C/C=C/C=C/C=C/C=C/C=C/[C@H](O[C@@H]2O[C@H](C)[C@@H](O)[C@H](N)[C@@H]2O)C[C@@H]2O[C@](O)(C[C@@H](O)C[C@@H](O)[C@H](O)CC[C@@H](O)C[C@@H](O)CC(=O)O[C@H]1C)C[C@H](O)[C@H]2C(=O)O [AmpB, (1R,3S,5R,6R,9R,11R,15S,16R, 17R, 18S, 19E,21E,23E, 25E, 27E,29E,31E,33R,35S,36R,37S)-33-[(2R,3S,4S,5S,6R)-4-amino-3,5-di hydroxy-6-methyloxan-2-yl]oxy-1,3,5,6,9,11,17,37-octahydroxy-15,16,18-trimethyl-13-oxo-14,39-dioxabicyclo[33.3.1]nonatriaconta-19,21,23, 25, 27,29,31-heptaene-36-carboxylic acid]
Zone of Inhibition, Set 1 (Candida albicans; [2]): 19 mm
Zone of Inhibition, Set 2 (Candida albicans; [2]): 19 mm
Zone of Inhibition, Set 3 (Candida albicans; [2]): 20 mm
Effective Zone of Inhibition (Candida albicans; mean of Sets 1-3): 19.33 ± 0.57 mm
Zone of Inhibition, Set 1 (Candida tropicalis; [2]): 20 mm
Zone of Inhibition, Set 2 (Candida tropicalis; [2]): 22 mm
Zone of Inhibition, Set 3 (Candida tropicalis; [2]): 22 mm
Effective Zone of Inhibition (Candida tropicalis; mean of Sets 1-3): 21.33 ± 1.15 mm
solubility in saline [1]: insoluble
